Three compounds from US20220315577A1, “NEW EGFR INHIBITORS” (Hoffmann-La Roche Inc., priority 2019, published 2022) can be followed below.

pIC50: −log10 of the molar value.

The target in this assay is T1, EGFR TMLRCS (T790M/L858R/C797S), BaF3-TMLRCS cell line (Homo sapiens, UniProt P00533, C797S/L858R/T790M).
T1 construct: host or cells: BaF3 (BaF3-TMLRCS, puromycin selection)
In words: HTRF Phospho EGFR TMLRCS assay (cellular). It is filed as cell-based. Conditions: BaF3-TMLRCS cells, 4 hours incubation, Phospho-EGFR HTRF readout. The procedure:
HTRF Phospho EGFR TMLRCS Assay (Cellular)
BaF3-TMLRCS cell line were obtained from Crownbio (San Diego, Calif., USA). Cells were maintained at 37° C., 5% CO2 in RPMI ATCC (Gibco 31870)+2 mM Glutamine+0.5 μg/ml Puromycin supplemented with 10% fetal bovine serum (FBS) (Gibco).
Cells are transferred as above to Greiner Bio-One, Nr. 784-08 micro-titerplate at 20000 cells/well in 12.5 μl of growth medium/well after the plates had been pre-filled with 12.5 nl of DMSO solutions of the to be tested compounds (in dose response) or DMSO only. After spinning the plates at 300×g for 30 seconds the cells were incubated for 4 hours at 37 C, 5% CO2, 95% humidity. The cells were lysed by adding to the compound mix 4 μl/well of the supplemented lysis buffer (Cis-bio, Phospho-EGFR HTRF kit, 64EG1PEH), followed by incubation for 30 min at room temperature with shaking (400 rpm). The plates were then frozen and stored overnight at −80 C. On the next day and after thawing the plates, 4 μl of a mixture of anti-Phospho-EGFR Cryptate and of anti-Phospho-EGFR-d2 antibody solutions prepared in the supplied detection buffer was added to each well. The lidded plates were then incubated for 4 h at room temperature before reading the fluorescence emission at 616 and 665 nm using an Envision reader (Perkin Elmer). Data was analyzed in similar fashion as above using the normalized ratio of the 665 to 616 signals multiplied by 10000.
In general terms: In TR-FRET formats the signal depends on donor and acceptor labels being close together.

T1 sequence (P00533 25-1210 T790M/C797S/L858R): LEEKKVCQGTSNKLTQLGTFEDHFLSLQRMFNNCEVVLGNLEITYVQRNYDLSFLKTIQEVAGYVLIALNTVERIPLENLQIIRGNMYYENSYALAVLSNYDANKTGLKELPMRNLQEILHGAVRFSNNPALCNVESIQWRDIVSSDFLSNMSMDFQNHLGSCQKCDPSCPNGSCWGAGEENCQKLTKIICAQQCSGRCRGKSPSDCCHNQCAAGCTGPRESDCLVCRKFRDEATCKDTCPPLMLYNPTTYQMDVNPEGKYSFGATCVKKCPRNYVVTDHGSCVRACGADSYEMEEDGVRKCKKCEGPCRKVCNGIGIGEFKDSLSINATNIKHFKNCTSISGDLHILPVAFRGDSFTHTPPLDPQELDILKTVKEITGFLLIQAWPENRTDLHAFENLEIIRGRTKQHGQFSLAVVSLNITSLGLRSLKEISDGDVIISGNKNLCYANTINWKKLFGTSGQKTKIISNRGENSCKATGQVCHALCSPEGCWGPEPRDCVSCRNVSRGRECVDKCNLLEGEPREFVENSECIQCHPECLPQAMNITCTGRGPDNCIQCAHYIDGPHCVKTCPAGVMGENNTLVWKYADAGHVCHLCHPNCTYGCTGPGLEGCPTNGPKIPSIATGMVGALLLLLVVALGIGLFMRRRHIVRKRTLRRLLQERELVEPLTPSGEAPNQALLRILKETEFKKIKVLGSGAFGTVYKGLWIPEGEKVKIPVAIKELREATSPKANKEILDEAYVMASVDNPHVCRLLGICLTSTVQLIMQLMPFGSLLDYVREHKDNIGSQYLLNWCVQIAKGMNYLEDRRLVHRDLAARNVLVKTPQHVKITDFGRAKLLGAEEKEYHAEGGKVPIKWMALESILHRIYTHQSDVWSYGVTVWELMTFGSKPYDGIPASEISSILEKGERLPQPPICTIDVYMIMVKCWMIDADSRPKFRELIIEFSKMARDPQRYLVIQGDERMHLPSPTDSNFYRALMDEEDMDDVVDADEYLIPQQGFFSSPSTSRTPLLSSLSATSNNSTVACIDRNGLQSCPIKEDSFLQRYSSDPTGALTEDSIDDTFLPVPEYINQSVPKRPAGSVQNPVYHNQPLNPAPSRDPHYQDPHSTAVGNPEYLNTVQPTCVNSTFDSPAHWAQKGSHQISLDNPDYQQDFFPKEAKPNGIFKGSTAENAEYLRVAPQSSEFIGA

The pIC50 is −log10 of the IC50, conventionally taken in molar units. Higher therefore signals a small IC50. For the compound `CCN1CCC(c2ccc(-c3cc(F)c4c(c3)C(=O)N(C(C(=O)Nc3nccs3)c3cc(F)ccc3O)C4)cc2)CC1` (racemic) [Example 1, (2RS)-2-[6-[4-(1-Ethyl-4-piperidyl)phenyl]-4-fluoro-1-oxo-isoindolin-2-yl]-2-(5-fluoro-2-hydroxy-phenyl)-N-thiazol-2-yl-acetamide], the pIC50 was 7.92.

As to `CCN1CCC(c2ccc(-c3cc(F)c4c(c3Cl)C(=O)N(C(C(=O)Nc3nccs3)c3cc(F)ccc3O)C4)cc2)CC1` (racemic) [Example 2, (2RS)-2-[7-Chloro-6-[4-(1-ethyl-4-piperidyl)phenyl]-4-fluoro-1-oxo-isoindolin-2-yl]-2-(5-fluoro-2-hydroxy-phenyl)-N-thiazol-2-yl-acetamide], the pIC50 was 7.96.

Consider `O=C(Nc1nccs1)C(c1cc(F)ccc1O)N1Cc2c(F)cc(-c3ccc(C4CCN(CCF)CC4)cc3)cc2C1=O` (racemic) [Example 3, (2RS)-2-[4-Fluoro-6-[4-[1-(2-fluoroethyl)-4-piperidyl]phenyl]-1-oxo-isoindolin-2-yl]-2-(5-fluoro-2-hydroxy-phenyl)-N-thiazol-2-yl-acetamide], for which the pIC50 is 8.05.
